Measured values as given in the NIST ThermoML archive (doi:10.1016/j.jct.2017.10.012).

Conditions: Liquid, Vibrating tube method

CCCC[n+]1cccc(C)c1.O=S(=O)([N-]S(=O)(=O)C(F)(F)F)C(F)(F)F
Conditions	mass density [kg/m3]
278.15 K, 100 kPa	1431.5
278.15 K, 101.33 kPa	1430.9
278.15 K, 1000 kPa	1432.1
278.15 K, 10000 kPa	1438.3
278.15 K, 20000 kPa	1444.9
278.15 K, 40000 kPa	1457.2
278.15 K, 60000 kPa	1468.5
278.15 K, 80000 kPa	1479.1
278.15 K, 100000 kPa	1488.9
278.15 K, 120000 kPa	1498.1
279.15 K, 101.33 kPa	1429.9
280.15 K, 101.33 kPa	1428.9
281.15 K, 101.33 kPa	1427.9
282.15 K, 101.33 kPa	1427
283.15 K, 101.33 kPa	1426
284.15 K, 101.33 kPa	1425
285.15 K, 101.33 kPa	1424
286.15 K, 101.33 kPa	1423.1
287.15 K, 101.33 kPa	1422.1
288.15 K, 101.33 kPa	1421.2
289.15 K, 101.33 kPa	1420.2
290.15 K, 101.33 kPa	1419.3
291.15 K, 101.33 kPa	1418.3
292.15 K, 101.33 kPa	1417.4
293.15 K, 101.33 kPa	1416.5
294.15 K, 101.33 kPa	1415.6
295.15 K, 101.33 kPa	1414.6
296.15 K, 101.33 kPa	1413.7
297.15 K, 101.33 kPa	1412.8
298.15 K, 100 kPa	1413.3
298.15 K, 101.33 kPa	1411.9
298.15 K, 1000 kPa	1414
298.15 K, 10000 kPa	1420.4
298.15 K, 20000 kPa	1427.3
298.15 K, 40000 kPa	1440.1
298.15 K, 60000 kPa	1452
298.15 K, 80000 kPa	1463
298.15 K, 100000 kPa	1473.5
298.15 K, 120000 kPa	1483.1
299.15 K, 101.33 kPa	1410.9
300.15 K, 101.33 kPa	1410
301.15 K, 101.33 kPa	1409.1
302.15 K, 101.33 kPa	1408.2
303.15 K, 101.33 kPa	1407.3
304.15 K, 101.33 kPa	1406.4
305.15 K, 101.33 kPa	1405.4
306.15 K, 101.33 kPa	1404.5
307.15 K, 101.33 kPa	1403.6
308.15 K, 101.33 kPa	1402.7
309.15 K, 101.33 kPa	1401.8
310.15 K, 101.33 kPa	1400.9
311.15 K, 101.33 kPa	1399.9
312.15 K, 101.33 kPa	1399
313.15 K, 100 kPa	1399.8
313.15 K, 101.33 kPa	1398.1
313.15 K, 1000 kPa	1400.5
313.15 K, 10000 kPa	1407.3
313.15 K, 20000 kPa	1414.5
313.15 K, 40000 kPa	1428
313.15 K, 60000 kPa	1440.3
313.15 K, 80000 kPa	1451.7
313.15 K, 100000 kPa	1462.4
313.15 K, 120000 kPa	1472.1
314.15 K, 101.33 kPa	1397.2
315.15 K, 101.33 kPa	1396.3
316.15 K, 101.33 kPa	1395.4
317.15 K, 101.33 kPa	1394.5
318.15 K, 101.33 kPa	1393.6
319.15 K, 101.33 kPa	1392.7
320.15 K, 101.33 kPa	1391.8
321.15 K, 101.33 kPa	1390.9
322.15 K, 101.33 kPa	1390
323.15 K, 101.33 kPa	1389.2
324.15 K, 101.33 kPa	1388.2
325.15 K, 101.33 kPa	1387.4
326.15 K, 101.33 kPa	1386.5
327.15 K, 101.33 kPa	1385.6
328.15 K, 101.33 kPa	1384.7
329.15 K, 101.33 kPa	1383.8
330.15 K, 101.33 kPa	1382.9
331.15 K, 101.33 kPa	1382.1
332.15 K, 101.33 kPa	1381.3
333.15 K, 100 kPa	1381.5
333.15 K, 101.33 kPa	1380.4
333.15 K, 1000 kPa	1382.2
333.15 K, 10000 kPa	1389.6
333.15 K, 20000 kPa	1397.2
333.15 K, 40000 kPa	1411.4
333.15 K, 60000 kPa	1424.4
333.15 K, 80000 kPa	1436.3
333.15 K, 100000 kPa	1447.5
333.15 K, 120000 kPa	1457.6
334.15 K, 101.33 kPa	1379.4
335.15 K, 101.33 kPa	1378.5
336.15 K, 101.33 kPa	1377.6
337.15 K, 101.33 kPa	1376.7
338.15 K, 101.33 kPa	1375.8
339.15 K, 101.33 kPa	1374.9
340.15 K, 101.33 kPa	1374.1
341.15 K, 101.33 kPa	1373.3
342.15 K, 101.33 kPa	1372.4
343.15 K, 101.33 kPa	1371.4
344.15 K, 101.33 kPa	1370.5
345.15 K, 101.33 kPa	1369.7
346.15 K, 101.33 kPa	1368.7
347.15 K, 101.33 kPa	1367.8
348.15 K, 100 kPa	1367.9
348.15 K, 101.33 kPa	1366.9
348.15 K, 1000 kPa	1368.7
348.15 K, 10000 kPa	1376.4
348.15 K, 20000 kPa	1384.4
348.15 K, 40000 kPa	1399.2
348.15 K, 60000 kPa	1412.7
348.15 K, 80000 kPa	1425
348.15 K, 100000 kPa	1436.5
348.15 K, 120000 kPa	1446.9
349.15 K, 101.33 kPa	1366
350.15 K, 101.33 kPa	1364.9
351.15 K, 101.33 kPa	1364
352.15 K, 101.33 kPa	1363
353.15 K, 101.33 kPa	1362.2
354.15 K, 101.33 kPa	1361.2
355.15 K, 101.33 kPa	1360.4
356.15 K, 101.33 kPa	1359.4
357.15 K, 101.33 kPa	1358.6
358.15 K, 101.33 kPa	1357.7
359.15 K, 101.33 kPa	1356.8
360.15 K, 101.33 kPa	1356
361.15 K, 101.33 kPa	1355.1
362.15 K, 101.33 kPa	1354.3
363.15 K, 101.33 kPa	1353.4
364.15 K, 101.33 kPa	1352.6
365.15 K, 101.33 kPa	1351.7
366.15 K, 101.33 kPa	1350.9
367.15 K, 101.33 kPa	1350
368.15 K, 101.33 kPa	1349.2
369.15 K, 101.33 kPa	1348.3
370.15 K, 101.33 kPa	1347.5
371.15 K, 101.33 kPa	1346.7
372.15 K, 101.33 kPa	1345.8
373.15 K, 100 kPa	1346.3
373.15 K, 101.33 kPa	1345
373.15 K, 1000 kPa	1346.5
373.15 K, 10000 kPa	1354.8
373.15 K, 20000 kPa	1363.4
373.15 K, 40000 kPa	1379.2
373.15 K, 60000 kPa	1393.5
373.15 K, 80000 kPa	1406.6
373.15 K, 100000 kPa	1418.7
373.15 K, 120000 kPa	1429.9
398.15 K, 100 kPa	1324.8
398.15 K, 1000 kPa	1324.6
398.15 K, 10000 kPa	1333.5
398.15 K, 20000 kPa	1342.9
398.15 K, 40000 kPa	1359.8
398.15 K, 60000 kPa	1374.9
398.15 K, 80000 kPa	1388.7
398.15 K, 100000 kPa	1401.4
398.15 K, 120000 kPa	1413.4
